Reference: US20250270218A1, “IMIDAZ0[1,2-A]PYRIMIDINE-5(1 H)-ONES AS WRN INHIBITORS” (Incyte Corporation, priority 2023, published 2025)

What was measured:
WRN [1] = biological target: T1, WRN (Homo sapiens, UniProt Q14191); assay: WRN Helicase activity assay (fluorescence DNA unwinding); assay type: biochemical; conditions: 1-hr pre-incubation with enzyme; 25 nM forked dsDNA, 100 μM ATP, 1 nM WRN; geometric mean of at least 2 replicates
T1 construct: A His-tagged construct of WRN (AA S2-S1235) was produced and used for the ATPase assay; made in house; host or cells: Sf9 insect cells (baculovirus, pFastBac1)
T1 sequence (Q14191 2-1235): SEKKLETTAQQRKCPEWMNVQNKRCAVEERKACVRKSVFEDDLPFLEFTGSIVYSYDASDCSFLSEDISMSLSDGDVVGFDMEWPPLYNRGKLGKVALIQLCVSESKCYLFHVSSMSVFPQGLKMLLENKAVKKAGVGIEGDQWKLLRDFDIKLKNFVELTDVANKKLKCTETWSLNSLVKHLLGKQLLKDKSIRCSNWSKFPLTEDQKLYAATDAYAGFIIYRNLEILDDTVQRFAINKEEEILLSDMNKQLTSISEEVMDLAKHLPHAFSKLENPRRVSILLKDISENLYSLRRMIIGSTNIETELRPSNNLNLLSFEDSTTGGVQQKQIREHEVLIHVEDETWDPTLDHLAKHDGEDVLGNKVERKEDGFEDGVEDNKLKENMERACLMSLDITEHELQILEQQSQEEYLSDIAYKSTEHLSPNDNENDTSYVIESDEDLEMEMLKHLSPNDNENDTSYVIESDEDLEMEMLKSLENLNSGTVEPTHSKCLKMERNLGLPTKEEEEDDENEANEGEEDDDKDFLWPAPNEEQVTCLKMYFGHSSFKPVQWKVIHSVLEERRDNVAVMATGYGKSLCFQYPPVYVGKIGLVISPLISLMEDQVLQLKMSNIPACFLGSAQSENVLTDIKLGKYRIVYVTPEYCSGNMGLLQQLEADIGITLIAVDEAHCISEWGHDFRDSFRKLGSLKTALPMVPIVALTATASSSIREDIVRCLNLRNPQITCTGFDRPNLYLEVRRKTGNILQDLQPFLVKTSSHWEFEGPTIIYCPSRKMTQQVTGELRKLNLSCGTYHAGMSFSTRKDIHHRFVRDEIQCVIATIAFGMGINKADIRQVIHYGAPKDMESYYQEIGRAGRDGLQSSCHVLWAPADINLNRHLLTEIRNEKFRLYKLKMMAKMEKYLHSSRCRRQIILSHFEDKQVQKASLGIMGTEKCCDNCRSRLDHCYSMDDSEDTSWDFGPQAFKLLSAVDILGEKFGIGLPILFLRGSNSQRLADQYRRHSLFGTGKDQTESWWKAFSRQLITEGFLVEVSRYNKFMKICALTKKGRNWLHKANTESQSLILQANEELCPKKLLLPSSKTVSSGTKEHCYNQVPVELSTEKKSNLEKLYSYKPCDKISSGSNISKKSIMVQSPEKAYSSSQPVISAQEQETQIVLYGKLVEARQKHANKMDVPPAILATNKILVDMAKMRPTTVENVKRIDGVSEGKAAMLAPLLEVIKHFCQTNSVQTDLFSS
Procedure: Compounds of the examples were tested for WRN helicase activity. DNA encoding the target protein, 6×HIS-TEV-WRN-517-945, was produced, cloned, and transfected as detailed in Example D. To determine the inhibitory properties of the compounds, a 384 wells plate-based Helicase assay was set up to measure the extent of DNA unwinding (Helicase) activity of WRN. The WRN Helicase assay was designed to measure increase in fluorescence signal using a fluorescence based, donor-quencher paired forked dsDNA oligomer substrate (custom synthesis from Sigma-Aldrich) prepared by annealing equal amounts of oligo GPat-1 ([BHQ2][…]) and oligo GPat-2 ([…][TAM]). Continuous measurement of fluorescent signal was used to optimize the buffer conditions, concentration of enzyme (WRN), concentration of substrates (ATP & dsDNA), and the linearity of the Helicase reaction. All solutions were prepared in the following assay buffer: 50 mM Tris-HCl, pH-7.5, 2 mM MgCl2, 50 mM NaCl, 1 mM EGTA, 0.01% P-20, 0.05% BSA, and 2 mM DTT prepared with nuclease free water.
A serial dilution (1:3 scheme) of the compounds was prepared in neat DMSO and 100 nL of the compounds was dispensed in the Greiner black low volume (Greiner #784076) 384 wells assay plate. A 1-hr pre-incubation of the compounds with enzyme was included. A His-tagged construct of WRN (AA S2-S1235) was produced and used for the ATPase assay. Maximum inhibition control wells were set up with the addition of only assay buffer, and no inhibition control wells were set up with neat DMSO without test compounds. The reaction was initiated by addition of 5 μL substrate mix (200 μM ultrapure ATP, and 50 nM dsDNA prepared in assay buffer) and incubated at 25° C. for 35 min. A typical Helicase reaction consists of 25 nM forked dsDNA, 100 μM ATP, and 1 nM WRN prepared in assay buffer. The WRN Helicase reaction was quenched by the addition of 5 μL ‘STOP’ solution containing 100 mM EDTA (final EDTA concentration 33.33 mM) prepared in assay buffer. The plates were read on BMG PHERAstar FSX using 540/590 module to measure an increase of fluorescence. Data analysis was carried out using the Genedata software following % of control normalization. Fitting parameters include dose response IC50, Hill slope (n), maximum inhibition (S∞), and minimum inhibition (S0). The reported IC50 values for compounds in this invention are the geometric means of at least 2 independent replicates.

WRN [2] = biological target: T1, WRN; assay: WRN ATPase activity assay (ADP-Glo); assay type: biochemical; conditions: 1-hr pre-incubation with enzyme; 25 nM forked dsDNA, 100 μM ATP, 1 nM WRN; geometric mean of at least 2 replicates
Procedure: Compounds of the Examples were tested for WRN ATPase activity. WRN ATPase activity catalyzes ATP hydrolysis to produce ADP and phosphate. DNA encoding the target protein, 6×HIS-TEV-WRN-517-945, was produced, cloned, and transfected as detailed in Example D. The amount of ADP produced was measured using ADP-Glo™ Kinase Assay kit from Promega Corporation in a Greiner white regular volume 384 wells assay plate (Greiner #781075). Data was normalized to a standard curve generated using various ADP concentrations and the corresponding luminescent signal intensities at each concentration. The assay conditions were optimized for enzyme concentration (WRN), substrate concentrations (ATP & dsDNA), and the linearity of the ATPase reaction, in the following assay buffer: 50 mM Tris-HCl, pH-7.5, 2 mM MgCl2, 50 mM NaCl, 1 mM EGTA, 0.01% P-20, 0.05% BSA, and 2 mM DTT prepared with nuclease free water.
A serial dilution (1:3 scheme) of the compounds were prepared in neat DMSO, with 100 nL of the compounds dispensed in the 384 wells assay plate. A 1-hr pre-incubation of the compounds with enzyme was included. A His-tagged construct of WRN (AA S2-S1235) was produced and used for the ATPase assay. Maximum inhibition control wells were set up with the addition of only assay buffer, and no inhibition control wells were set up with neat DMSO without test compounds. The reaction was initiated by addition of 5 μL substrate mix (200 μM ultrapure ATP, and 50 nM dsDNA prepared in assay buffer) and incubated at 25° C. for 35 min. A forked dsDNA oligomer substrate was prepared by annealing equal amounts of oligo GPat-1 ([BHQ2][…]) and oligo GPat-2 ([…][TAM]) and was used as dsDNA substrate for WRN ATPase assay. A typical ATPase reaction consists of 25 nM forked dsDNA, 100 μM ATP, and 1 nM WRN prepared in assay buffer. The WRN ATPase reaction was stopped by the addition of 5 μL of ADP-Glo Reagent from ADP-Glo™ Kinase Assay kit and incubated for 40 min to deplete the unreacted ATP. Afterwards, 5 μL of Kinase Detection Reagent from the ADP-Glo™ Kinase Assay kit was added and incubated for 1 hr for the development of luminescence signal.
Luminesce signals were measured on BMG PHERAstar FSX using luminescence protocol. Data analysis was carried out using Genedata software following % of control normalization. Fitting parameters include dose response IC50, Hill slope (n), maximum inhibition (S∞), and minimum inhibition (S0). The reported IC50 values for compounds in this invention are the geometric means of at least 2 independent replicates.

| Structure (SMILES) | IC50 (WRN [1]) [µM] | IC50 (WRN [2]) [µM] |
| --- | --- | --- |
| C=CC(=O)Nc1ccccc1-c1c(CC)n(CC(=O)Nc2ccc(C(F)(F)F)cc2)c2nc(C)c(C)n2c1=O [Example 1, N-(2-(7-ethyl-2,3-dimethyl-5-oxo-8-(2-oxo-2-((4-(trifluoromethyl)phenyl)amino)ethyl)-5,8-dihydroimidazo[1,2-a]pyrimidin-6-yl)phenyl)acrylamide] | 0.1 to 0.5 | 0.1 to 0.5 |
| C=CC(=O)Nc1ccccc1-c1c(CC)n(CC(=O)Nc2ccc(C(F)(F)F)cc2)c2nc(-c3ccccc3)cn2c1=O [Example 2, N-(2-(7-Ethyl-5-oxo-8-(2-oxo-2-((4-(trifluoromethyl)phenyl)amino)ethyl)-2-phenyl-5,8-dihydroimidazo[1,2-a]pyrimidin-6-yl)phenyl)acrylamide] | 0.1 to 0.5 | 0.1 to 0.5 |
| C=CC(=O)Nc1ccccc1-c1c(CC)n(CC(=O)Nc2ccc(F)cc2Cl)c2nc(C)c(C)n2c1=O [Example 4, N-(2-(8-(2-((2-chloro-4-fluorophenyl)amino)-2-oxoethyl)-7-ethyl-2,3-dimethyl-5-oxo-5,8-dihydroimidazo[1,2-a]pyrimidin-6-yl)phenyl)acrylamide] | 0.1 to 0.5 | 0.1 to 0.5 |
| C=CC(=O)Nc1ccccc1-c1c(C)nc2n(CC(=O)Nc3ccc(C(F)(F)F)cc3)c(CC)c(C)c(=O)n12 [Example 8, N-(2-(7-Ethyl-2,6-dimethyl-5-oxo-8-(2-oxo-2-((4-(trifluoromethyl)phenyl)amino)ethyl)-5,8-dihydroimidazo[1,2-a]pyrimidin-3-yl)phenyl)acrylamide] | < 0.1 | < 0.1 |
| C=CC(=O)Nc1ccccc1-c1c(C)nc2n(CC(=O)Nc3ccc(C(F)(F)F)cc3)c(CC)c(-c3ccc(C(=O)NCC)cc3)c(=O)n12 [Example 9, 4-(3-(2-Acrylamidophenyl)-7-ethyl-2-methyl-5-oxo-8-(2-oxo-2-((4-(trifluoromethyl)phenyl)amino)ethyl)-5,8-dihydroimidazo[1,2-a]pyrimidin-6-yl)-N-ethylbenzamide] | < 0.1 | < 0.1 |
| C=CC(=O)Nc1ccccc1-c1c(C)nc2n(CC(=O)Nc3ccc(C(F)(F)F)cc3)c(CC)c(-c3ccc(C(=O)NC)nc3)c(=O)n12 [Example 10, 5-(3-(2-Acrylamidophenyl)-7-ethyl-2-methyl-5-oxo-8-(2-oxo-2-((4-(trifluoromethyl)phenyl)amino)ethyl)-5,8-dihydroimidazo[1,2-a]pyrimidin-6-yl)-N-methylpicolinamide] | < 0.1 | < 0.1 |

Further lines, results first:

| IC50 (WRN [1]) [µM] | IC50 (WRN [2]) [µM] | Structure (SMILES) |
| --- | --- | --- |
| < 0.1 | < 0.1 | C=CC(=O)Nc1ccccc1-c1c(CC)n(CC(=O)Nc2ccc(F)cc2)c2nc(C)c(C)n2c1=O [Example 3, N-(2-(7-Ethyl-8-(2-((4-fluorophenyl)amino)-2-oxoethyl)-2,3-dimethyl-5-oxo-5,8-dihydroimidazo[1,2-a]pyrimidin-6-yl)phenyl)acrylamide] |
| 0.1 to 0.5 | 0.1 to 0.5 | C=CC(=O)Nc1ccccc1-c1c(CC)n(CC(=O)Nc2ccc(C(F)(F)F)cc2)c2nc(C)c(-c3ccccc3)n2c1=O [Example 5, N-(2-(7-ethyl-2-methyl-5-oxo-8-(2-oxo-2-((4-(trifluoromethyl)phenyl)amino)ethyl)-3-phenyl-5,8-dihydroimidazo[1,2-a]pyrimidin-6-yl)phenyl)acrylamide] |
| 0.1 to 0.5 | 0.1 to 0.5 | C=CC(=O)Nc1ccccc1-c1c(C)nc2n(CC(=O)Nc3ccc(F)cc3)c(CC)c(-c3ccccc3)c(=O)n12 [Example 6, N-(2-(7-Ethyl-8-(2-((4-fluorophenyl)amino)-2-oxoethyl)-2-methyl-5-oxo-6-phenyl-5,8-dihydroimidazo[1,2-a]pyrimidin-3-yl)phenyl)acrylamide] |
| < 0.1 | < 0.1 | C=CS(=O)(=O)Nc1ccccc1-c1c(C)nc2n(CC(=O)Nc3ccc(F)cc3)c(CC)c(-c3ccccc3)c(=O)n12 [Example 7, 2-(7-Ethyl-2-methyl-5-oxo-6-phenyl-3-(2-(vinylsulfonamido)phenyl)imidazo[1,2-a]pyrimidin-8(5H)-yl)-N-(4-fluorophenyl)acetamide] |
